Patent US12351580B2, “NLRP3 modulators” (Innate Tumor Immunity, Inc., priority 2017, dated 2025)

Key:
TLR7 = target: T1, TLR7 (Homo sapiens, UniProt Q9NYK1); experiment: In vitro human TLR7 binding reporter assay (HEK-Blue, NF-kB/AP1-inducible SEAP); type: cell-based; conditions: activity range symbols
T1 construct: host or cells: HEK-Blue cells (human HEK) co-expressing TLR7 and an NF-kB/AP1-inducible SEAP reporter
T1 sequence (Q9NYK1 27-1049): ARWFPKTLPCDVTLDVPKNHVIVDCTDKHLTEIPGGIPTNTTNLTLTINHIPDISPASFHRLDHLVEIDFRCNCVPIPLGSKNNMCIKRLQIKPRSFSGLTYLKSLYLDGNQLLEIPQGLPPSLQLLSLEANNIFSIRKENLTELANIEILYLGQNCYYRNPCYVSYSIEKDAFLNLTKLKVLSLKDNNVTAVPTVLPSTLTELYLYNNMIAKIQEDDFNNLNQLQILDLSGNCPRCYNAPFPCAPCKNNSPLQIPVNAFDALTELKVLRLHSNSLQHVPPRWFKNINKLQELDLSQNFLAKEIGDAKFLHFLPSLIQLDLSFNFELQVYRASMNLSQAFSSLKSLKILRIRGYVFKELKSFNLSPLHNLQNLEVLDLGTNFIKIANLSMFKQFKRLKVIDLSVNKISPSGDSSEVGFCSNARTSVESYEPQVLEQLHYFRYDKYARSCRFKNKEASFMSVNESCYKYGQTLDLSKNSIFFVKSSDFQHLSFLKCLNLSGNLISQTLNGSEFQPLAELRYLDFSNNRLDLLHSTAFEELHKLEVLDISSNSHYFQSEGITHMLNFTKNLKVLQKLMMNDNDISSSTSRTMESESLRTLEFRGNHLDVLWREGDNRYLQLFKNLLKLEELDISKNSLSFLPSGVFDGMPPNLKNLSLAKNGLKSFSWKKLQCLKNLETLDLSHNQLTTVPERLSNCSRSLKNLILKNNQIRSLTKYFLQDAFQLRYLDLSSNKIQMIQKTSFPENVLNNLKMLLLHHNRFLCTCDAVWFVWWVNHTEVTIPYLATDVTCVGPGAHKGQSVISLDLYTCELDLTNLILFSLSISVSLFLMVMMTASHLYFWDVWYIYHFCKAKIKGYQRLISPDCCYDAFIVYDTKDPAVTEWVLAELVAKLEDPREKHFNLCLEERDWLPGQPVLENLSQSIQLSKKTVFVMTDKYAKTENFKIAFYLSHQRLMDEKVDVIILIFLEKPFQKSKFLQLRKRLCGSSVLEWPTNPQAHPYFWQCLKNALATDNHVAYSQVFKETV
Procedure: (§1) In Vitro Human TLR7 and TLR8 Binding Reporter Assays
(§2) Logarithmically-growing human HEK-Blue cells co-expressing a TLR7 or TLR8 gene and a NF-kB/AP1-inducible SEAP (secreted embryonic alkaline phosphatase; Invivogen, San Diego, CA) reporter gene are added to individual wells of a 384-well plate (15,000 cells per 20 μL per well) and maintained for 24 h at 37° C., 5% CO2. Test compounds or DMSO are distributed to separate wells the next day using acoustic liquid handling technology (100 nL per well) and cells are subsequently incubated for 18 h at 37° C., 5% CO2. Cellular SEAP production is measured using an Envision plate reader instrument thirty minutes after adding freshly-made Quanti-Blue reagent (prepared by following manufacturer instructions; Invivogen, San Diego, CA) to the HEK-Blue TLR Nf-kB-SEAP cell reactions. All EC50 values (half-maximal effective concentration) are determined using proprietary data analysis software.

TLR8 = target: T2, TLR8 (Homo sapiens, UniProt Q9NR97); experiment: In vitro human TLR8 binding reporter assay (HEK-Blue, NF-kB/AP1-inducible SEAP); type: cell-based; conditions: activity range symbols
T2 construct: host or cells: HEK-Blue cells (human HEK) co-expressing TLR8 and an NF-kB/AP1-inducible SEAP reporter
T2 sequence (Q9NR97 27-1041): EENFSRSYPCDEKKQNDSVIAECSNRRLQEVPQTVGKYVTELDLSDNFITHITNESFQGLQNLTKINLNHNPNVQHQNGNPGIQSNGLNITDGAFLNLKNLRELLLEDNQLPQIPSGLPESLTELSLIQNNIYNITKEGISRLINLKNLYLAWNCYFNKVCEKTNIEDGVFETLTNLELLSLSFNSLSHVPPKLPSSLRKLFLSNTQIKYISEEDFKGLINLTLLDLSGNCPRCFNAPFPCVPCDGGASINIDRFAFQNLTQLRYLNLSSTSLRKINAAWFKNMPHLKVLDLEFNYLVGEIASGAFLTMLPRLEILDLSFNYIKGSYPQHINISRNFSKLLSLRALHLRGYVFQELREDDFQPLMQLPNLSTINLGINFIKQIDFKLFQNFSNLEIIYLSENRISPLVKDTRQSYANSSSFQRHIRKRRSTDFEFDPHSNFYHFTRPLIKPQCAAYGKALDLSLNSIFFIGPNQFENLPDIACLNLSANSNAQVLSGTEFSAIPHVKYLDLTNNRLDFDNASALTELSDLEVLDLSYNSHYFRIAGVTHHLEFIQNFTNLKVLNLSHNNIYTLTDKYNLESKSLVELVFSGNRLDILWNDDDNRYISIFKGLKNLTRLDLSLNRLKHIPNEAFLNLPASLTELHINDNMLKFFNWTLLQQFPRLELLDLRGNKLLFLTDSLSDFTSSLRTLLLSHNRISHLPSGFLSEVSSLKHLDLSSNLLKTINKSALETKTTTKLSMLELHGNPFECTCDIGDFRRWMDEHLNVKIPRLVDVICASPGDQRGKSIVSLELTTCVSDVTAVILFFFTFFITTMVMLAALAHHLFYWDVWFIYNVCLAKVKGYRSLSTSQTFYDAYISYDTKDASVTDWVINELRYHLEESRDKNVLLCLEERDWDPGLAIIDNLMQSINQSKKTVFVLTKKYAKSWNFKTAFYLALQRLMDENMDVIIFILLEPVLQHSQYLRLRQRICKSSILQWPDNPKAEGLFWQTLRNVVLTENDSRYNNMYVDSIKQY
Procedure: as §1, §2

| EC50 (TLR7) [µM] | EC50 (TLR8) [µM] | Structure (SMILES) |
| --- | --- | --- |
| > 100 | > 100 | Nc1nc2cc(-n3cccn3)ccc2c2[nH]c(CN3CC(c4ccccc4)CC3=O)nc12 (stereo not drawn) [Compound 103] |
| > 100 | > 100 | CCN(Cc1nc2c(N)nc3cc(C)ccc3c2[nH]1)C(C)=O [Compound 104] |
| > 100 | > 100 | CCNCc1nc2c(N)nc3cc(-c4cc[nH]n4)ccc3c2n1C [Compound 106, 2-((Ethylamino)methyl)-1-methyl-7-(1H-pyrazol-3-yl)-1H-imidazo[4,5-c]quinolin-4-amine] |
| > 100 | > 100 | CCN(Cc1nc2c(N)nc3cc(-n4cccn4)ccc3c2[nH]1)S(C)(=O)=O [Compound 108, N-((4-Amino-7-(1H-pyrazol-1-yl)-1H-imidazo[4,5-c]quinolin-2-yl)methyl)-N-ethylmethanesulfonamide] |
| > 100 | > 100 | CCN(Cc1nc2c(N)nc3cc(-c4cc[nH]n4)ccc3c2[nH]1)C(=O)OC(C)(C)C [Compound 109, tert-Butyl ((4-amino-7-(1H-pyrazol-3-yl)-1H-imidazo[4,5-c]quinolin-2-yl)methyl)(ethyl)carbamate] |
| > 100 | > 100 | CCN(Cc1nc2c(N)nc3cc(-c4cc[nH]n4)ccc3c2[nH]1)C(=O)N(C)C [Compound 110, 1-((4-Amino-7-(1H-pyrazol-3-yl)-1H-imidazo[4,5-c]quinolin-2-yl)methyl)-1-ethyl-3,3-dimethylurea] |
| 20 to 100 | > 100 | Nc1nc2cc(C(F)(F)F)ccc2c2[nH]c(CN3CCCC3=O)nc12 [Compound 163] |
| > 100 | > 100 | CCN(Cc1nc2c(N)nc3ccccc3c2n1CCCC(=O)OC)C(C)=O [Compound 164] |
| > 100 | > 100 | CCN(Cc1nc2c(N)nc3cc(-c4ccccc4)ccc3c2[nH]1)C(C)=O [Compound 165, N-[(4-amino-7-phenyl-1H-imidazo[4,5-c]quinolin-2-yl)methyl]-N-ethylacetamide] |
| > 100 | > 100 | CCN(Cc1nc2c(N)nc3cc(-c4cccnc4)ccc3c2[nH]1)C(C)=O [Compound 166, N-[(4-amino-7-pyridin-3-yl-1H-imidazo[4,5-c]quinolin-2-yl)methyl]-N-ethylacetamide] |
| > 100 | > 100 | CCN(Cc1nc2c(N)nc3cc(-c4ccncc4)ccc3c2[nH]1)C(C)=O [Compound 167, N-[(4-amino-7-pyridin-4-yl-1H-imidazo[4,5-c]quinolin-2-yl)methyl]-N-ethylacetamide] |
| > 100 | > 100 | CCN(Cc1nc2c(N)nc3cc(-c4cc(C)nn4C)ccc3c2[nH]1)C(C)=O [Compound 168, N-[[4-amino-7-(2,5-dimethylpyrazol-3-yl)-1H-imidazo[4,5-c]quinolin-2-yl]methyl]-N-ethylacetamide] |
| > 100 | > 100 | CCCn1cc(-c2ccc3c(c2)nc(N)c2nc(CN(CC)C(C)=O)[nH]c23)cn1 [Compound 169, N-[[4-amino-7-(1-propylpyrazol-4-yl)-1H-imidazo[4,5-c]quinolin-2-yl]methyl]-N-ethylacetamide] |
| 20 to 100 | > 100 | CCN(Cc1nc2c(N)nc3cc(C(C)C)ccc3c2[nH]1)C(C)=O [Compound 170, N-[(4-amino-7-propan-2-yl-1H-imidazo[4,5-c]quinolin-2-yl)methyl]-N-ethylacetamide] |
| 1 to 20 | > 100 | CCc1ccc2c(c1)nc(N)c1nc(CN(CC)C(C)=O)[nH]c12 [Compound 171, N-[(4-amino-7-ethyl-1H-imidazo[4,5-c]quinolin-2-yl)methyl]-N-ethylacetamide] |
| 1 to 20 | > 100 | CCCc1ccc2c(c1)nc(N)c1nc(CN(CC)C(C)=O)[nH]c12 [Compound 172, N-[(4-amino-7-propyl-1H-imidazo[4,5-c]quinolin-2-yl)methyl]-N-ethylacetamide] |
| > 100 | > 100 | CCN(Cc1nc2c(N)nc3cc(C4CCCC4)ccc3c2[nH]1)C(C)=O [Compound 173, N-[(4-amino-7-cyclopentyl-1H-imidazo[4,5-c]quinolin-2-yl)methyl]-N-ethylacetamide] |
| > 100 | > 100 | CCN(Cc1nc2c(N)nc3cc(-c4cccnc4F)ccc3c2[nH]1)C(C)=O [Compound 175, N-[[4-amino-7-(2-fluoropyridin-3-yl)-1H-imidazo[4,5-c]quinolin-2-yl]methyl]-N-ethylacetamide] |
| > 100 | > 100 | CCN(Cc1nc2c(N)nc3ccccc3c2[nH]1)C(C)=O [Compound 176] |
| > 100 | > 100 | CCN(Cc1nc2c(N)nc3cc(Br)ccc3c2[nH]1)C(C)=O [Compound 177] |
| > 100 | > 100 | CCN(Cc1nc2c(N)nc3cc(Cl)ccc3c2[nH]1)C(C)=O [Compound 179, N-[(4-amino-7-chloro-1H-imidazo[4,5-c]quinolin-2-yl)methyl]-N-ethylacetamide] |
| > 100 | > 100 | CCN(Cc1nc2c(N)nc3cc(-n4cccn4)ccc3c2[nH]1)C(C)=O [Compound 180, N-[(4-amino-7-pyrazol-1-yl-1H-imidazo[4,5-c]quinolin-2-yl)methyl]-N-ethylacetamide] |
| > 100 | > 100 | CCN(Cc1nc2c(N)nc3cc(C4=CCCC4)ccc3c2[nH]1)C(C)=O [Compound 183] |
| 1 to 20 | 20 to 100 | CC(=O)N(C)Cc1nc2c(N)nc3ccccc3c2[nH]1 [Compound 187] |
| > 100 | > 100 | COC(=O)CCCn1c(CN(C)C(C)=O)nc2c(N)nc3ccccc3c21 [Compound 188] |
| > 100 | > 100 | CCN(Cc1nc2c(N)nc3cc(C4CC4)ccc3c2n1Cc1ccc(OC)cc1)C(C)=O [Compound 190] |
| > 100 | > 100 | CCN(Cc1nc2c(N)nc3ccccc3c2n1CCCNC(=O)OC(C)(C)C)C(C)=O [Compound 191] |
| > 100 | > 100 | CCN(Cc1nc2c(N)nc3ccc(Br)cc3c2[nH]1)C(C)=O [Compound 194] |
| > 100 | > 100 | CCN(Cc1nc2c(N)nc3cc(N4CCNC4=O)ccc3c2n1Cc1ccc(OC)cc1)C(C)=O [Compound 196] |
| > 100 | > 100 | CCN(Cc1nc2c(N)nc3ccc(Cl)cc3c2[nH]1)C(C)=O [Compound 197] |
